Test results reported in patent US11578087B2, “Oxaborole esters and uses thereof” (priority 2016, dated 2023).

How the values were obtained:
[1] = tested on: IL3000 T. congolense (drug sensitive) strain; test: In vitro Alamar Blue 72 h drug sensitivity assay for T. congolense; type: cell-based, Trypanosoma congolense; conditions: Trypanosoma congolense, 72 h, bloodstream form, 69 h + 3 h Resazurin, 34° C., read-out: IC50: I Org. Growth T. congolense 3 d
Experimental: Example 252. In Vitro Alamar Blue 72 h Drug Sensitivity Assay for T. congolense
Compounds were tested in vitro for chemotherapeutic potency against the IL3000 T. congolense (drug sensitive) strain, using the Alamar Blue assay with several modifications. Test compounds were prepared as 10 mg/mL DMSO stocks for each assay run. Compounds were assayed in at least three separate, independent test runs and an 11-point dilution curve was used to determine the IC50 values. Bloodstream form trypanosomes were supported in HMI media containing 20% bovine serum and were incubated with test compounds for 69 h at 34° C. in a humidified atmosphere containing 5% CO2. Thereafter, 10 μL of Resazurin dye (12.5 mg in 100 mL of phosphate buffered saline, Sigma-Aldrich, Buchs, Switzerland) were added for an additional 3 h. Plates were then read using a fluorescent plate reader (Spectramax, Gemini XS, Bucher Biotec, Basel, Switzerland) using an excitation wavelength of 536 nm and an emission wavelength of 588 nm. Data points were averaged to generate sigmoidal dose-response curves and IC50 values were determined using Softmax Pro 5.2 software.

[2] = tested on: T. cruzi amastigote (Td Tomato-modified) in Vero cells; test: In vitro IC50 measurement of T. cruzi amastigote killing using Td Tomato-modified T. cruzi; type: cell-based; conditions: Trypanosoma cruzi, 72 h, fluorescence, read-out: IC50: I Org. amastigote Growth T. cruzi 3 d
Summary of the method: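 IC50/IC90 came from nonlinear regression of Day 3 minus Day 0 fluorescence (544/612 nm), correcting for input parasites. Final compound concentrations spanned 5 nM–5 uM on Td Tomato T. cruzi-infected Vero cells, 72 h at 37 °C.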

| Compound | IC50 [1] | IC50 [2] |
| --- | --- | --- |
| Cc1c(C(=O)N[C@H](C(=O)OCc2ccc(F)c(C(F)(F)F)c2)C(C)C)ccc2c1B(O)OC2 [Example 6-049, 4-Fluoro-3-(trifluoromethyl)benzyl (1-hydroxy-7-methyl-1,3-dihydrobenzo[c][1,2]oxaborole-6-carbonyl)-L-valinate] | < 0.0005 µM | ≤ 0.02 µM |
| Cc1c(C(=O)N[C@H](C(=O)OCc2ccc(F)cc2)C2CC2)ccc2c1B(O)OC2 [Example 6-050, 4-Fluorobenzyl (S)-2-cyclopropyl-2-(1-hydroxy-7-methyl-1,3-dihydrobenzo[c][1,2]oxaborole-6-carboxamido)acetate] | < 0.0005 µM | 0.021 to 0.999 µM |
| CCc1c(C(=O)N[C@H](C(=O)OCc2ccccc2)C(C)C)ccc2c1B(O)OC2 [Example 6-053, Benzyl (7-ethyl-1-hydroxy-1,3-dihydrobenzo[c][1,2]oxaborole-6-carbonyl)-L-valinate] | < 0.0005 µM | 0.021 to 0.999 µM |
| Cc1c(C(=O)N[C@H](C(=O)OCc2ccc(OC(F)(F)F)cc2)C(C)C)ccc2c1B(O)OC2 [Example 6-054, 4-Trifluoromethoxybenzyl (1-hydroxy-7-methyl-1,3-dihydrobenzo[c][1,2]oxaborole-6-carbonyl)-L-valinate] | < 0.0005 µM | ≤ 0.02 µM |
| Cc1c(C(=O)N[C@H](C(=O)OCc2cccc(OC(F)(F)F)c2)C(C)C)ccc2c1B(O)OC2 [Example 6-055, 3-Trifluoromethoxybenzyl (1-hydroxy-7-methyl-1,3-dihydrobenzo[c][1,2]oxaborole-6-carbonyl)-L-valinate] | < 0.0005 µM | ≤ 0.02 µM |
| Cc1c(C(=O)N[C@H](C(=O)OCc2ccc(S(C)(=O)=O)cc2)C(C)C)ccc2c1B(O)OC2 [Example 6-056, 4-(Methylsulfonyl)benzyl (1-hydroxy-7-methyl-1,3-dihydrobenzo[c][1,2]oxaborole-6-carbonyl)-L-valinate] | 0.00051 to 0.00999 µM | 0.021 to 0.999 µM |
| CC(C)[C@H](NC(=O)c1ccc2c(c1C1CC1)B(O)OC2)C(=O)OCc1ccccc1 [Example 6-058, Benzyl (7-cyclopropyl-1-hydroxy-1,3-dihydrobenzo[c][1,2]oxaborole-6-carbonyl)-L-valinate] | < 0.0005 µM | ≥ 1 µM |
| Cc1c(C(=O)N[C@H](C(=O)OCc2ccc(F)cc2)C2CCC2)ccc2c1B(O)OC2 [Example 6-059, 4-Fluorobenzyl (S)-2-cyclobutyl-2-(1-hydroxy-7-methyl-1,3-dihydrobenzo[c][1,2]oxaborole-6-carboxamido)acetate] | 0.00051 to 0.00999 µM | 0.021 to 0.999 µM |
| Cc1c(C(=O)N[C@H](C(=O)OCc2ccc(F)cc2)C2CCCC2)ccc2c1B(O)OC2 [Example 6-060, 4-Fluorobenzyl (S)-2-cyclopentyl-2-(1-hydroxy-7-methyl-1,3-dihydrobenzo[c][1,2]oxaborole-6-carboxamido)acetate] | 0.00051 to 0.00999 µM | 0.021 to 0.999 µM |
| Cc1c(C(=O)N[C@H](C(=O)OCc2ccc(F)cc2)C(C)C)ccc2c1B(O)OC2C (stereo partly drawn) [Example 6-061, 4-Fluorobenzyl (3,7-dimethyl-1-hydroxy-1,3-dihydrobenzo[c][1,2]oxaborole-6-carbonyl)-L-valinate] | 0.00051 to 0.00999 µM | 0.021 to 0.999 µM |
| CC(C)c1c(C(=O)N[C@H](C(=O)OCc2ccccc2)C(C)C)ccc2c1B(O)OC2 [Example 6-063, Benzyl (1-hydroxy-7-isopropyl-1,3-dihydrobenzo[c][1,2]oxaborole-6-carbonyl)-L-valinate] | 0.00051 to 0.00999 µM | ≥ 1 µM |
| CCCc1c(C(=O)N[C@H](C(=O)OCc2ccccc2)C(C)C)ccc2c1B(O)OC2 [Example 6-065, Benzyl (1-hydroxy-7-propyl-1,3-dihydrobenzo[c][1,2]oxaborole-6-carbonyl)-L-valinate] | 0.00051 to 0.00999 µM | 0.021 to 0.999 µM |
| Cc1c(C(=O)NC2(C(=O)OCc3ccc(F)cc3)CCC2)ccc2c1B(O)OC2 [Example 6-066, 4-Fluorobenzyl 1-(1-hydroxy-7-methyl-1,3-dihydrobenzo[c][1,2]oxaborole-6-carboxamido)cyclobutane-1-carboxylate] | < 0.0005 µM | ≤ 0.02 µM |
| Cc1c(C(=O)N[C@H](C(=O)OCc2ccc(F)cn2)C(C)C)ccc2c1B(O)OC2 [Example 6-067, (5-Fluoropyridin-2-yl)methyl (1-hydroxy-7-methyl-1,3-dihydrobenzo[c][1,2]oxaborole-6-carbonyl)-L-valinate] | < 0.0005 µM | ≤ 0.02 µM |
| COC(=O)[C@@H](NC(=O)c1ccc2c(c1C)B(O)OC2)C(C)C [Example 6-069, Methyl (1-hydroxy-7-methyl-1,3-dihydrobenzo[c][1,2]oxaborole-6-carbonyl)-L-valinate] | 0.00051 to 0.00999 µM | 0.021 to 0.999 µM |
| CC(C)[C@H](NC(=O)c1ccc2c(c1C(F)(F)F)B(O)OC2)C(=O)OCc1ccccc1 [Example 6-071, Benzyl (1-hydroxy-7-(trifluoromethyl)-1,3-dihydrobenzo[c][1,2]oxaborole-6-carbonyl)-L-valinate] | 0.01 to 5 µM | 0.021 to 0.999 µM |
| Cc1c(C(=O)N[C@H](C(=O)OCc2cccc(N3CCN(C)CC3)c2)C(C)C)ccc2c1B(O)OC2 [Example 6-072, 3-(4-Methylpiperazin-1-yl)benzyl (1-hydroxy-7-methyl-1,3-dihydrobenzo[c][1,2]oxaborole-6-carbonyl)-L-valinate] | < 0.0005 µM | ≤ 0.02 µM |
| CC(C)[C@H](NC(=O)c1ccc2c(c1C(F)F)B(O)OC2)C(=O)OCc1ccc(F)cc1 [Example 6-073, 4-Fluorobenzyl (7-(difluoromethyl)-1-hydroxy-1,3-dihydrobenzo[c][1,2]oxaborole-6-carbonyl)-L-valinate] | 0.00051 to 0.00999 µM | ≤ 0.02 µM |
| Cc1c(C(=O)N[C@H](C(=O)OCc2ccc(F)cc2)[C@@H](C)O)ccc2c1B(O)OC2 [Example 6-074, 4-Fluorobenzyl (1-hydroxy-7-methyl-1,3-dihydrobenzo[c][1,2]oxaborole-6-carbonyl)-L-threoninate] | < 0.0005 µM | 0.021 to 0.999 µM |
| Cc1c(C(=O)N[C@H](C(=O)OCc2ccc(NS(C)(=O)=O)cc2)C(C)C)ccc2c1B(O)OC2 [Example 6-075, 4-(Methylsulfonamido)benzyl (1-hydroxy-7-methyl-1,3-dihydrobenzo[c][1,2]oxaborole-6-carbonyl)-L-valinate] | 0.01 to 5 µM | ≥ 1 µM |
| CCc1c(C(=O)N[C@H](C(=O)OCc2ccc(S(C)(=O)=O)cc2)C(C)C)ccc2c1B(O)OC2 [Example 6-076, 4-(Methylsulfonyl)benzyl (7-ethyl-1-hydroxy-1,3-dihydrobenzo[c][1,2]oxaborole-6-carbonyl)-L-valinate] | 0.00051 to 0.00999 µM | 0.021 to 0.999 µM |
| Cc1c(C(=O)N[C@H](C(=O)OCc2ccc(F)cc2)[C@@H](C)OCc2ccccc2)ccc2c1B(O)OC2 [Example 6-077, 4-Fluorobenzyl O-benzyl-N-(1-hydroxy-7-methyl-1,3-dihydrobenzo[c][1,2]oxaborole-6-carbonyl)-L-threoninate] | 0.00051 to 0.00999 µM | ≤ 0.02 µM |
| Cc1c(C(=O)N[C@H](C(=O)OCc2cccc(S(C)(=O)=O)c2)C(C)C)ccc2c1B(O)OC2 [Example 6-080, 3-(Methylsulfonyl)benzyl (1-hydroxy-7-methyl-1,3-dihydrobenzo[c][1,2]oxaborole-6-carbonyl)-L-valinate] | 0.00051 to 0.00999 µM | 0.021 to 0.999 µM |
